Patent publication US6831075B2, “Heterocyclic substituted pyrazolones” (Cephalon, Inc., priority 1999, dated 2004)

Target: T1, recombinant human baculovirus-expressed VEGFR1 cytoplasmic domain (Homo sapiens, UniProt P17948)
T1 construct: recombinant human baculovirus-expressed VEGFR1 cytoplasmic domain; host or cells: baculovirus expression system
T1 sequence (P17948 781-1338 limits assumed): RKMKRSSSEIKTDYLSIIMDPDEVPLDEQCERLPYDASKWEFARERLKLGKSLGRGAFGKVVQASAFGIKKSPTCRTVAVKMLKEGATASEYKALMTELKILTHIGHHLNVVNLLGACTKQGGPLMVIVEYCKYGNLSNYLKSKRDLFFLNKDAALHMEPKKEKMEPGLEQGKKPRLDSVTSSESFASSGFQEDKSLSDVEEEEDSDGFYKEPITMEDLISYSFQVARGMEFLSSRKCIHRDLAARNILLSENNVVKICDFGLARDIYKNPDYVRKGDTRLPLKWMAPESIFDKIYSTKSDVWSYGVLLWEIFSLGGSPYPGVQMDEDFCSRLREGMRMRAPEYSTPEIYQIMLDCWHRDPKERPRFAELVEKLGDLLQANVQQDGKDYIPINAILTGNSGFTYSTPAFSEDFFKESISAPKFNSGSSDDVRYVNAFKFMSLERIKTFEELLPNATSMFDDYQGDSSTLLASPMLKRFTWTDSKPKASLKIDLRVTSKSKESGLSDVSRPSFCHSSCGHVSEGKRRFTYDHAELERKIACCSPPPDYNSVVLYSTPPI
Assay: VEGFR1 kinase inhibition assay (ELISA-based, time-resolved fluorescence)
Type: biochemical
Settings: 1 uM compound; 30 μM ATP
Protocol: Inhibition of Vascular Endothelial Growth Factor Receptor-1 Kinase Activity
The VEGFR1 kinase activity assay utilizes an ELISA-based format in a 96-well FluoroNUNC Maxisorp plate with a time-resolved fluorescence readout. The plate was coated with 100 μl/well of substrate solution (recombinant human PLC-γ/GST) at a concentration of 40 μg/ml in Tris buffered saline (TBS). The VEGFR1 activity was assayed in 100-μl assay micture containing 50 mM HEPES (pH 7.4), 30 μM ATP, 10 mM MnCl2, 0.1% BSA, 2% DMSO, and 300 ng/ml prephosphorylated recombinant human baculovirus-expressed VEGFR1 cytoplasmic domain. Compounds were screened for inhibition of the VEGFR1 kinase activity at a concentration of 1 μM. The kinase reaction was allowed to proceed at 37° C. for 15 minutes. The detection antibody, europium-labeled anti-phosphotyrosine antibody (Wallac #CR04-100), was added at 1:5000 dilution in block buffer (3% BSA in TBST). After a 1-hour incubation at 37° C., 100 μl of enhancement solution (Wallac #1244-105) was added and the plate was gently agitated. After 5 min, the fluorescence of the resulting solution was measured using the BMG Fluostar (Model # 403).

Structure (SMILES)	VEGFR-1 kinase % inhibition @ 1 uM [%]
Cc1cc(C)c(C=C2C(=O)NN=C2c2cccn2C)[nH]1 [Compound 55]	20
Cn1ccc(C2=NNC(=O)C2=Cc2c[nH]c3ccc(F)cc23)c1 [Compound 32]	48
Cn1ccc(C2=NNC(=O)C2=Cc2c[nH]c3ccc(Cl)cc23)c1 [Compound 35]	10
Cn1ccc(C2=NNC(=O)C2=Cc2c[nH]c3ccccc23)c1 [Compound 24]	39
Cc1c(I)[nH]c(C=C2C(=O)NN=C2c2ccoc2)c1I [Compound 6]	14
CCc1c(C=C2C(=O)NN=C2c2ccoc2)[nH]c(C(=O)OCc2ccccc2)c1C [Compound 5]	10
Cn1cc(C=C2C(=O)NN=C2c2nccs2)c2ccccc21 [Compound 60]	63

Same assay, conditions: 1 uM compound; 30 μM ATP; read-out: VEGFR-1 kinase % inhibition @ 1 uM

Structure (SMILES)	inhibition at 1 µM [%]
Cc1cc(C)c(C=C2C(=O)NN=C2c2ccco2)[nH]1 [Compound 28, 4-[(3,5-dimethylpyrrol-2-yl)methylene]-3-(2-furyl)-2-pyrazolin-5-one]	36
Cc1cc(C)c(C=C2C(=O)NN=C2c2nccs2)[nH]1 [Compound 26, 4-[(3,5-dimethylpyrrol-2-yl)methylene]-3-(1,3-thiazol-2-yl)-2 pyrazolin-5-one]	64
Cc1cc(C)c(C=C2C(=O)NN=C2c2cnccn2)[nH]1 [Compound 74, 4-[(3,5-dimethylpyrrol-2-yl)methylene]-3-pyrazin-2-yl-2-pyrazolin-5-one]	74

Target: T2, recombinant human baculoviral VEGFR2 cyctoplasmic domain (Homo sapiens, UniProt P35968)
T2 construct: recombinant human baculoviral VEGFR2 cyctoplasmic domain; host or cells: baculovirus expression system
Assay: VEGFR2 kinase inhibition assay (ELISA-based, time-resolved fluorescence)
Type: biochemical
Settings: 1 uM compound; 30 μM ATP
Protocol: Inhibition of Vascular Endothelial Growth Factor Receptor-2 Kinase Activity
Assay were performed as described for trkA kinase below. The 96-well microtiter plate (FluoroNUNC Maxisorp) was coated with 40 μg/ml recombinant human phospholipase C-γ1/glutathione S-transferase fusion protein. Inhibition studies were performed in 100 μl assay mixtures containing 50 mM HEPES, pH 7.4, 30 μM ATP, 10 mM MnCl2, 0.1% BSA, 2% DMSO, and 1 μM of test compound. The reaction was initiated by adding prephosphorylated recombinant human baculoviral VEGFR2 cyctoplasmic domain. The reaction was allowed to proceed for 15 minutes at 37° C. The detection antibody, eurpium-labeled anti-phosphotyrosine antibody (Wallac #CR04-100), was added at 1:5000 dilution in block buffer (3% BSA in TBST).

T2 sequence (P35968 786-1356 limits assumed): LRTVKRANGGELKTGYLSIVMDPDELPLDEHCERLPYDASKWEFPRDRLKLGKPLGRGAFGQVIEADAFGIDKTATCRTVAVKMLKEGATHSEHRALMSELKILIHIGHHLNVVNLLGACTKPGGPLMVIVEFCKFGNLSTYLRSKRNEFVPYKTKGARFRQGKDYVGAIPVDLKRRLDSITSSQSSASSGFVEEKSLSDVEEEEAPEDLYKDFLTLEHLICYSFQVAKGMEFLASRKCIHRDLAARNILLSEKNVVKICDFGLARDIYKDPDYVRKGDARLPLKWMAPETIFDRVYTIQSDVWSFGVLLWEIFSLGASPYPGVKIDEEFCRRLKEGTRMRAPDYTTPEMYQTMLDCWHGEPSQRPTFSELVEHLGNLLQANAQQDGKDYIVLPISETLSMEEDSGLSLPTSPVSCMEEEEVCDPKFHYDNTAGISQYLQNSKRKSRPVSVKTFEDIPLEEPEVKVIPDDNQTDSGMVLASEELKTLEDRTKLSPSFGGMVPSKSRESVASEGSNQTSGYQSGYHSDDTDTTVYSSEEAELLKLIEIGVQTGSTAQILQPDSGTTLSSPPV

Structure (SMILES)	VEGFR-2 kinase % inhibition @ 1 uM [%]
Cc1cc(C)c(C=C2C(=O)NN=C2c2cccn2C)[nH]1 [Compound 55]	38
Cn1ccc(C2=NNC(=O)C2=Cc2c[nH]c3ccc(F)cc23)c1 [Compound 32]	47
Cn1ccc(C2=NNC(=O)C2=Cc2c[nH]c3ccc(Cl)cc23)c1 [Compound 35]	19
Cn1ccc(C2=NNC(=O)C2=Cc2c[nH]c3ccccc23)c1 [Compound 24]	32
Cc1c(I)[nH]c(C=C2C(=O)NN=C2c2ccoc2)c1I [Compound 6]	9
CCc1c(C=C2C(=O)NN=C2c2ccoc2)[nH]c(C(=O)OCc2ccccc2)c1C [Compound 5]	−5

Same assay, conditions: 1 uM compound; 30 μM ATP; read-out: VEGFR-2 kinase % inhibition @ 1 uM

Structure (SMILES)	inhibition at 1 µM [%]
Cc1cc(C)c(C=C2C(=O)NN=C2c2ccco2)[nH]1 [Compound 28, 4-[(3,5-dimethylpyrrol-2-yl)methylene]-3-(2-furyl)-2-pyrazolin-5-one]	80

Target: T3, baculovirus-expressed human trkA cytoplasmic domain (Homo sapiens, UniProt P04629)
T3 construct: baculovirus-expressed human trkA cytoplasmic domain; host or cells: baculovirus expression system
Assay: trkA tyrosine kinase inhibition assay (ELISA-based)
Type: biochemical
Settings: 1 uM compound; 40 μM ATP
Protocol: Inhibition of trkA Tyrosine Kinase Activity
Selected heterocyclic substituted pyrazolones were tested for their ability to inhibit the kinase activity of baculovirus-expressed human trkA cytoplasmic domain using an ELISA-based assay as previously described (Angeles et al., Anal. Biochem. 236: 49-55, 1996). Briefly, a 96-well microtiter plate was coated with substrate solution (recombinant human phospholipase C-γl/glutathione S-transferase fusion protein (Rotin et al., EMBO J., 11: 559-567, 1992). Inhibition studies were performed in 100 μl assay mixtures containing 50 mM Hepes, pH 7.4, 40 μM ATP, 10 mM MnCl2, 0.1% BSA, 2% DMSO, and various concentrations of inhibitor. The reaction was initiated by addition of trkA kinase and allowed to proceed for 15 minutes at 37° C. An antibody to phosphotyrosine (UBI) was then added, followed by a secondary enzyme-conjugated antibody, alkaline phosphatase-labelled goat anti-mouse IgG (Bio-Rad). The activity of the bound enzyme was measured via an amplified detection system (Gibco-BRL). Inhibition data were analyzed using the sigmoidal dose-response (variable slope) equation in GraphPad Prism.

T3 sequence (P04629 440-796 limits assumed): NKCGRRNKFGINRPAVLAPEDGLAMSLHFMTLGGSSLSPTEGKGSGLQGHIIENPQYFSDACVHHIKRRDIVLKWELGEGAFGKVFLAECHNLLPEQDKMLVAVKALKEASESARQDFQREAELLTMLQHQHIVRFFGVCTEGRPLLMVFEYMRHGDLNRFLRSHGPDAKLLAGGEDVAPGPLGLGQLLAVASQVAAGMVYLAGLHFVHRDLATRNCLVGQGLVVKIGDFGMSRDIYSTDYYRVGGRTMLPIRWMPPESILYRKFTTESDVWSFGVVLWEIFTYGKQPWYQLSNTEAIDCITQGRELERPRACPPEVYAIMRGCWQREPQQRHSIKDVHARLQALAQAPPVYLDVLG

Structure (SMILES)	inhibition at 1 µM [%]	trkA % inhibition @ 1 uM [%]
Cc1cc(C)c(C=C2C(=O)NN=C2c2ccco2)[nH]1 [Compound 28, 4-[(3,5-dimethylpyrrol-2-yl)methylene]-3-(2-furyl)-2-pyrazolin-5-one]	34	
Cc1cc(C)c(C=C2C(=O)NN=C2c2cccn2C)[nH]1 [Compound 55]		47
Cn1ccc(C2=NNC(=O)C2=Cc2c[nH]c3ccc(F)cc23)c1 [Compound 32]		8
Cn1ccc(C2=NNC(=O)C2=Cc2c[nH]c3ccc(Cl)cc23)c1 [Compound 35]		23
Cn1ccc(C2=NNC(=O)C2=Cc2c[nH]c3ccccc23)c1 [Compound 24]		22
Cc1c(I)[nH]c(C=C2C(=O)NN=C2c2ccoc2)c1I [Compound 6]		31
CCc1c(C=C2C(=O)NN=C2c2ccoc2)[nH]c(C(=O)OCc2ccccc2)c1C [Compound 5]		2
Cc1cc(C)c(C=C2C(=O)NN=C2c2nccs2)[nH]1 [Compound 26, 4-[(3,5-dimethylpyrrol-2-yl)methylene]-3-(1,3-thiazol-2-yl)-2 pyrazolin-5-one]	42	
Cn1cc(C=C2C(=O)NN=C2c2nccs2)c2ccccc21 [Compound 60]		71
Cc1cc(C)c(C=C2C(=O)NN=C2c2cnccn2)[nH]1 [Compound 74, 4-[(3,5-dimethylpyrrol-2-yl)methylene]-3-pyrazin-2-yl-2-pyrazolin-5-one]	53	

Target: T4, baculoviral GST-MLK3KD (Homo sapiens, UniProt Q16584)
T4 construct: 2 μg/ml of baculoviral GST-MLK3KD; GST (N); host or cells: baculovirus expression system
Assay: Mixed Lineage Kinase-3 inhibition assay (Millipore Multiscreen plate, 32P)
Type: biochemical
Settings: 1 uM compound; 100 μM ATP
Protocol: Inhibition of Mixed Lineage Kinase-3 Activity
Assays were performed using the Millipore Multiscreen plate format as described for MLK1. Briefly, each 50-μl assay mixture contained 20 mM Hepes, pH 7, 1 mM EGTA, 10 mM MgCl2, 1 mM DTT, 25 mM β-glycerophosphate, 100 μM ATP, 0.25 μCi [γ-^32P]ATP, 0.1% BSA, 500 μg/ml myelin basic protein (UBI #13-104), 2% DMSO, various concentrations of test compound, and 2 μg/ml of baculoviral GST-MLK3KD. Samples were incubated for 15 min at 37° C. The reaction was stopped by adding ice cold 50% TCA and the proteins were allowed to precipitate for 30 min at 4° C. The plates were then washed with ice cold 25% TCA. Supermix scintillation cocktail was added, and the plates were allowed to equilibrate for 1-2 hours prior to counting.

T4 sequence (Q16584 117-379 limits assumed): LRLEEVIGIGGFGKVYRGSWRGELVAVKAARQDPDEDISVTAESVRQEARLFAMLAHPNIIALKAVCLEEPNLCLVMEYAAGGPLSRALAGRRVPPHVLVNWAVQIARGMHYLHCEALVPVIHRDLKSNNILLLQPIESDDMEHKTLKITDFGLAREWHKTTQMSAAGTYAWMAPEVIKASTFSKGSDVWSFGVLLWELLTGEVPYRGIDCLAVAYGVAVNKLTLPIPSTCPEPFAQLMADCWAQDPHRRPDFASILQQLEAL

Structure (SMILES)	MLK-3 Kinase % inhibition @ 1 uM [%]
Cc1cc(C)c(C=C2C(=O)NN=C2c2cccn2C)[nH]1 [Compound 55]	26
Cn1ccc(C2=NNC(=O)C2=Cc2c[nH]c3ccc(F)cc23)c1 [Compound 32]	42
Cn1ccc(C2=NNC(=O)C2=Cc2c[nH]c3ccc(Cl)cc23)c1 [Compound 35]	34
Cn1ccc(C2=NNC(=O)C2=Cc2c[nH]c3ccccc23)c1 [Compound 24]	38
Cc1c(I)[nH]c(C=C2C(=O)NN=C2c2ccoc2)c1I [Compound 6]	3
CCc1c(C=C2C(=O)NN=C2c2ccoc2)[nH]c(C(=O)OCc2ccccc2)c1C [Compound 5]	−9
Cn1cc(C=C2C(=O)NN=C2c2nccs2)c2ccccc21 [Compound 60]	58

Same assay, conditions: 1 uM compound; 100 μM ATP; read-out: MLK-3 Kinase % inhibition @ 1 uM

Structure (SMILES)	inhibition at 1 µM [%]
Cc1cc(C)c(C=C2C(=O)NN=C2c2ccco2)[nH]1 [Compound 28, 4-[(3,5-dimethylpyrrol-2-yl)methylene]-3-(2-furyl)-2-pyrazolin-5-one]	50
Cc1cc(C)c(C=C2C(=O)NN=C2c2nccs2)[nH]1 [Compound 26, 4-[(3,5-dimethylpyrrol-2-yl)methylene]-3-(1,3-thiazol-2-yl)-2 pyrazolin-5-one]	57
Cc1cc(C)c(C=C2C(=O)NN=C2c2cnccn2)[nH]1 [Compound 74, 4-[(3,5-dimethylpyrrol-2-yl)methylene]-3-pyrazin-2-yl-2-pyrazolin-5-one]	72
